In ChEMBL document CHEMBL1759928, “Synthesis and evaluation of library of betulin derivatives against the botulinum neurotoxin A protease” (Bioorg Med Chem Lett, 2011):
Active and inactive are the calls of the source. The calls are words filed in the database; no cut-off is given here.

Assays:
[1] = target: Botulinum neurotoxin type A (Clostridium botulinum, UniProt P0DPI0); assay: Inhibition of Clostridium BoNT/A protease light chain
[2] = target: Botulinum neurotoxin type A (Clostridium botulinum) (UniProt P0DPI0); settings: 0.67 to 18 uM
Sequence of Botulinum neurotoxin type A (Clostridium botulinum) (P0DPI0 2-448 limits assumed): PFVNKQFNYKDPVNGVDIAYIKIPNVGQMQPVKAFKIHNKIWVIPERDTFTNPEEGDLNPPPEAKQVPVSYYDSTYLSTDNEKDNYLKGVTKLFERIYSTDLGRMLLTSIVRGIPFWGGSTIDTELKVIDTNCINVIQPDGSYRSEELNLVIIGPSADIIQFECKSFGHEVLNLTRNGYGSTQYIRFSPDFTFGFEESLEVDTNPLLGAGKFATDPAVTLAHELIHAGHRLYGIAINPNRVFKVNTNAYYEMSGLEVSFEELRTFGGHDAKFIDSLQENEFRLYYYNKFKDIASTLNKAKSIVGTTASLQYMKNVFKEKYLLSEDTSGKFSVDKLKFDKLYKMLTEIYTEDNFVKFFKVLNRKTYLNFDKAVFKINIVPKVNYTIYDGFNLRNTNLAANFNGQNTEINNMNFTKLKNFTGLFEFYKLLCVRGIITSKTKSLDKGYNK

Sequence of Botulinum neurotoxin type A (P0DPI0 2-448 limits assumed): as above

Work on `C=C(C)[C@@H]1CC[C@]2(COC(=O)COc3cc(C(C)C)ccc3C)CC[C@]3(C)[C@H](CC[C@@H]4[C@@]5(C)CC[C@H](O)C(C)(C)[C@@H]5CC[C@]43C)[C@@H]12` yielded an IC50 [1] of 10 µM and a Ki [1] of 13.3 µM.
With `C=C(C)[C@@H]1CC[C@]2(C(=O)O)CC[C@]3(C)[C@H](CC[C@@H]4[C@@]5(C)CCC(=O)C(C)(C)[C@@H]5CC[C@]43C)[C@@H]12` [BETUNOLIC ACID] the IC50 [1] was < 100 µM.
In the case of `C=C(C)[C@@H]1CC[C@]2(COC(=O)CCC(=O)O)CC[C@]3(C)[C@H](CC[C@@H]4[C@@]5(C)CC[C@H](O)C(C)(C)[C@@H]5CC[C@]43C)[C@@H]12`, the inhibition [2] is reported as “Active”, the IC50 [1] is reported as 1.5 µM and the Ki [1] is reported as 0.8 µM.
`C=C(C)[C@@H]1CC[C@]2(C(=O)O)CC[C@]3(C)[C@H](CC[C@@H]4[C@@]5(C)CC[C@H](O)C(C)(C)[C@@H]5CC[C@]43C)[C@@H]12` [BETULINIC ACID] showed an IC50 [1] of 20 µM and a Ki [1] of 14.3 µM.
`C=C(C)[C@@H]1CC[C@]2(C(=O)OC)CC[C@]3(C)[C@H](CC[C@@H]4[C@@]5(C)CC[C@H](O)C(C)(C)[C@@H]5CC[C@]43C)[C@@H]12` [METHYL BETULINATE] was tested, and the IC50 [1] was < 100 µM.
